How the values were obtained:
[1] = system: IL-2-induced multisystem organ edema; details: ref [5]; cited from earlier work
Description: (§1) Antamanide (AA) is a monocyclic, homodetic decapeptide isolated from the poisonous mushroom Amanita phalloides. […] Little is known about the biochemical mechanisms underlying these diverse bioactivities. To explain its antitoxic activity, ...

tumour cell models = details: in vitro; ref [3]; cited from earlier work
Description: as §1

[2] = system: hepatocyte membrane transporter for the phallotoxin phalloidin and for the amatoxin alpha-amanitin; details: proposed; ref [6], [7]; cited from earlier work
Description: as §1

animal model = details: ref [4]; cited from earlier work
Description: as §1

[3] = system: mitochondrial permeability transition pore (PTP), CyP-D knock-out fibroblasts; assay: CRC assay, mitochondria isolated from CyP-D knock-out mouse fibroblasts; type: biochemical; details: 25°C, Figure 3B
Description: (§2) Figure 3 Effect of AA on respiration and PTP opening in mitochondria of wild-type or CyP-D knock-out mouse fibroblasts. A, upper part: Western blot analysis assessing CyP-D expression in fibroblasts obtained from either wild-type or CyP-D knock-out mice; HKII was utilized to verify protein load; lower part: representative experiment showing oxygen consumption as assessed by polarography (see Methods) in mitochondria isolated from wild-type fibroblasts in the absence (a) or presence (b) of 8 µM AA. Experiments were started by adding 0.6 mg of mitochondria (Mito), followed by 100 µM ADP and 50 µM 2,4-dinitrophenol (DNP) (arrows). Each experiment was repeated at least three times. Oxygen consumption is reported as percentage of initial value on the y axis. B, bar graphs report the ratio between the CRC detected in the presence (CRC) and absence (CRC0) of increasing concentrations of AA, in mitochondria from either wild-type fibroblasts (left) or CyP-D knock-out fibroblasts (right). […] Results are mean±SD of at least 4 experiments.
Mitochondria were isolated either from livers of C57BL/6 mice through sequential centrifugations, or from cells, as described. To obtain mitochondria, cells were disrupted with a glass-Teflon potter in a buffer composed by 250 mM sucrose, 10 mM Tris-HCl, 0.1 mM EGTA-Tris, pH 7.4. […]
PTP opening was detected as a fluorescence increase.

HeLa cells = type: cell-based, human; details: clotrimazole; data not shown
[4] = system: mitochondria isolated from wild-type fibroblasts; assay: mitochondrial respiration assay, wild-type fibroblast mitochondria; type: biochemical, mouse; details: 8 µM AA; polarography, Clark electrode, 25°C; repeated at least three times
Description: as §2
(§3) Mitochondrial oxygen consumption was measured polarographically at 25°C with a Clark oxygen electrode (Yellow Springs Instruments, OH, USA). Mitochondria (0.6 mg per experimental point) were incubated in a solution of 130 mM KCl, 10 mM Tris-Mops, 1 mM Pi-Tris, 20 mM EGTA-Tris and 2 µM rotenone/5 mM succinate to assay basal respiration (state 4). […]

immunosuppressant = system: immunosuppressant; set-up: method as in PMID 1494502, PMID 8441706; details: ref [10], [11]; cited from earlier work
Description: Antamanide (AA) is a monocyclic, homodetic decapeptide isolated from the poisonous mushroom Amanita phalloides. […] Little is known about the biochemical mechanisms underlying these diverse bioactivities. […] The CyP chaperone activity, i.e. the isomerization to the cis form of the peptidyl bonds preceding each proline, is involved in folding and association processes required for proteins to perform thei ...

mouse liver mitochondria = assay: mitochondrial respiration assay, mouse liver mitochondria; type: biochemical; details: polarography, Clark electrode, 25°C; data not shown
Description: Mitochondrial oxygen consumption was measured polarographically at 25°C with a Clark oxygen electrode (Yellow Springs Instruments, OH, USA). Mitochondria (0.6 mg per experimental point) were incubated in a solution of 130 mM KCl, 10 mM Tris-Mops, 1 mM Pi-Tris, 20 mM EGTA-Tris and 2 µM rotenone/5 mM succinate to assay basal respiration (state 4). ADP (200 µM) was subsequently added to measure state 3 respiration, followed by the uncoupling agent dinitrophenol (100 µM) to assess the maximal respiration rate.

[5] = system: mitochondria from CyP-D knock-out fibroblasts; assay: mitochondrial respiration assay, CyP-D knock-out fibroblast mitochondria; type: biochemical, mouse; details: polarography, Clark electrode, 25°C
Description: as §2, §3

[6] = system: mitochondrial permeability transition pore (PTP), wild-type fibroblasts; type: cell-based, mouse; details: Figure 4C
Description: A, B, PTP opening of digitonized wild-type (A) or CyP-D knock-out (B) fibroblasts was measured with the whole-cell CRC assay. Experiments were started by the addition of digitonized cells (not shown) followed by pulses of Ca^2+ (5 µM each) and are plotted as in Figure 1B. The use of AA is shown with a red trace. Alamethicin (Alm, 1 µM) was added at the end of each measurement to fully release Ca^2+ from intracellular stores. […] D, isomerase activity assay (see Materials and Methods): after addition of the substrate peptide N-succinyl-Ala-Ala-cis-trans-Pro-Phe-p-nitroanilide (arrow), chimotrypsin cleaves the trans-isomeric form, causing a rise in absorbance.
The Ca^2+ retention capacity (CRC) assay was used to assess PTP opening following trains of Ca^2+ pulses and measured fluorimetrically at 25°C in the presence of the Ca^2+ indicator Calcium Green-5N (1 µM; λexc: 505 nm; λem: 535 nm; Molecular Probes). […] Digitonin was then eliminated and the number of cells carefully assessed before starting each experiment. […] Cells or mitochondria were then exposed to Ca^2+ spikes, and fluorescence drops were used to assess mitochondrial Ca^2+ uptake. PTP opening was detected as a fluorescence increase. Calcium Green-5N fluorescence was measured either with a fluorescence spectrometer LS50B (Perkin Elmer, Waltham, MA) or with a Fluoroskan Ascent FL fluorimeter (Thermo Electron Corporation, Waltham, MA).

[7] = system: phallotoxins and amatoxins; details: cited from earlier work
Description: Antamanide (AA) is a monocyclic, homodetic decapeptide isolated from the poisonous mushroom Amanita phalloides. […] Little is known about the biochemical mechanisms underlying these diverse bioactivities.

## Antamanide [AA]
[1]
  attenuation of edema: attenuates IL-2-induced multisystem organ edema
Tumour cell models
  tumor cell growth inhibition: inhibits tumor cell growth in vitro
[2]
  antagonism of hepatocyte transporter for phalloidin and alpha-amanitin: competitively antagonizes a hepatocyte membrane transporter
Animal model
  antitumor action: displays an antitumor action in an animal model
[3]
  PTP inhibition (CRC): totally ineffective
HeLa cells
  inhibition of clotrimazole-induced cell death: inhibited the process
[4]
  oxygen consumption: unaffected
immunosuppressant
  immunosuppressant activity: acts as an immunosuppressant
Mouse liver mitochondria
  oxygen consumption: unaffected
[5]
  oxygen consumption: unaffected
[6]; digitonized wild-type cells, mean±SD of at least 4 experiments
  PTP inhibition (CRC/CRC0): display an inhibitory effect on the PTP in wild-type
[6]; wild-type fibroblasts, Student's t test
  CRC/CRC0: difference from CRC of untreated mitochondria: significant difference (Student's t test analysis; *: p<0.01)
[7]; ref [2]
  antidote activity: strong antidote activity against phallotoxins and amatoxins
[7]; ref [8], [9]
  abrogation of toxic effects of phalloidin: abrogates the toxic effects of the phallotoxin phalloidin

Reference: article PMC3030572, “Antamanide, a Derivative of Amanita phalloides, Is a Novel Inhibitor of the Mitochondrial Permeability Transition Pore” (PLoS ONE, 2011)
